Experiment: Viscosity of aqueous solution of constituent material (E-type viscometer)
Assay type: physicochemical
Conditions: for Water absorption promoter, Viscosity: aqueous solution of 5 mass % at 37° C., Examples 1-3, 7, 10-12 glycerin, other Examples the promoter other than glycerin; for Antiadhesive agent, Viscosity: aqueous solution of 5 mass % of the antiadhesive agent at 37° C.
Method: Tables 1 and 2 shown the constituent materials of the intestinal collapse-controlling layer, the gel-forming layer and the antiadhesive layer of the orally-administered agents obtained in the respective Examples and the respective Comparative Examples and the contents thereof. […] Furthermore, the viscosity of the water absorption promoter in the Table 1 and the viscosity of the antiadhesive agent in the Table 2 denote a viscosity at 37° C. of an aqueous solution of 5 mass % of the water absorption promoter and the antiadhesive agent, respectively. Each viscosity was measured with an E-type viscometer (a product of Tokimec, Inc.).

SMILES | Water absorption promoter, Viscosity [mPa · s] | Antiadhesive agent, Viscosity [mPa · s]
OC[C@@H](O)[C@@H](O)[C@H](O)[C@H](O)CO [Man, mannitol] | 0.87 | 0.87
OC[C@@H](O)[C@H](O)[C@@H](O)CO [Xyl, xylitol] | 1.08 | 0.87

Source: patent US20110182954A1, “ORALLY-ADMINISTERED AGENT” (LINTEC Corporation, priority 2008, published 2011)
